Measurements taken from patent publication US7053177B1, “Random peptides that bind to gastro-intestinal tract (GIT) transport receptors and related methods” (Cytogen Corporation, priority 1997, dated 2006).
Ends that are not written are not given here. * marks the point of attachment. Dansyl = CN(C)c1cccc2c(S(=O)(=O)*)cccc12

Key:
[1] = test system: P100 membrane fraction of Caco-2 cells; experiment: GST-PAX2 peptides: relative binding to P100 fractions (ratio to GST-HAX42); details: GST-peptide 20 μg/ml; binding to plastic subtracted; GST-HAX42 = 1.00
Description: The peptides and proteins were analyzed by a dansylated peptide ELISA method in which 96 well plates were coated overnight at 4° C. with 100 μl/well coating protein (normally 100 μg/ml P100 membrane fraction) in 0.05M carbonate buffer pH9.6. Nonspecific binding was blocked using 200 μl/well, 2% Marvel/PBS for 2 hours at 37° C. prior to incubation with dansylated peptides. The plates were washed three times with PBS/0.05% Tween 20 and after each subsequent incubation step. […] A buffer blank control was included to ensure that background binding to plastic was not due to the antibodies used in the assay system. […] The plates were then incubated with an anti-mouse λ-HRP conjugated antibody (Southern Biotech 1060-05) at a 1:10,000 dilution in blocking solution, 100 μl/well for 1 hour at room temperature. Plates were developed using 75 μl/well Bionostics TMB substrate and incubated for approximately 10 minutes. The developing reaction was stopped using Bionostics Red Stop solution (25 μl/well), and the optical density of the plates was read at 650 nm.
After subtraction of the GST-peptide binding to plastic from P100 binding values, the binding of GST-PAX2 peptides were represented as a ratio of GST-HAX42 binding to P100, which was given the arbitrary value of 1.00. The following ratios were determined from binding to P100 of GST-peptides at a peptide concentration of 20 μg/ml. […]

fixed Caco-2 cells [2] = experiment: ELISA of GST fusion proteins on fixed Caco-2 cells; assay type: binding; details: in words
Description: Fixed Caco-2, C2BBe1, and A431 cell plates were prepared by growing cells on tissue culture treated microtiter plates. When cells were confluent, plates were fixed with 10% formaldehyde, washed twice with PBS and stored with 0.5% BSA-PBS at −20° C. […] The standard ELISA procedure was followed at this point.
The standard ELISA procedure was modified as follows. GST proteins were diluted to an appropriate concentration in PBS containing 1% BSA and 0.05% Tween20 (1% BPT), titered and incubated one hour at room temperature. Following five washes an anti-GST monoclonal antibody was added (Sigma, St. Louis Clone GST-2 diluted 1:10,000 in 1% BPT) and incubated one hour. After five more washes goat anti-mouse IgG2b-HRP was added (Southern Biotechnology Associates Inc., Birmingham, Ala., diluted 1:4000 in 1% BPT) and incubated one hour. After five washes plates were developed with TMB peroxidase substrate (Kirkegard and Perry, Gaithersburg, Md.). All data is presented with background binding subtracted.

fixed C2BBe1 cells = experiment: Competition ELISA: dansylated peptides versus GST fusion proteins on fixed C2BBe1 cells; assay type: binding; details: 5 μg/ml concentration used in competition assays
Description: The standard ELISA procedure was modified as follows. GST fusion proteins and peptides were diluted to an appropriate concentration in PBS containing 1% BSA and 0.05% Tween 20. Peptides were titered, a constant concentration of diluted GST protein was added to titered peptides and the mixture was incubated one hour at room temperature. Following five washes, an anti-GST monoclonal antibody was added (Sigma, St. Louis Clone GST-2 diluted 1:10,000 in 1% BPT) and incubated one hour. After five more washes goat anti-mouse IgG2b-HRP was added (Southern Biotechnology Associates Inc., Birmingham, Ala., diluted 1:4000 in 1% BPT) and incubated one hour. After five washes plates were developed with TMB peroxidase substrate (Kirkegard and Perry, Gaithersburg, Md.). All data is presented with background binding subtracted.
Data is presented as O.D. vs. peptide concentration and as percent inhibition of GST-P31 binding vs. peptide concentration. Uncompeted GST-P31 binding was considered as 100% binding.
FIGS. 10A–10C present a compilation of data generated by competition ELISA of GST-P31, GST-PAX2, GST-SNi10 and GST-HAX42 versus various dansylated peptides on fixed C2BBe1 cells. IC50 values are in μM and include ranges determined from multiple assays. The GST/C2BBe1 column is a summary of GST protein binding to fixed C2BBe1 cells.

fixed Caco-2 cells [3] = experiment: Effect of thrombin cleavage on binding of GST-peptide fusions to fixed Caco-2 cells; details: in words
Description: Binding of intact and thrombin-cleaved GST-peptide fusions to fixed Caco-2 cells was compared.
Thirty micrograms of each GST-peptide was treated with bovine thrombin (1 μ/ml; 0.4 NIH units; Sigma CN.T9681) for 18h at room temperature in 20 mM Tris-HCl pH8.0, 150 mM NaCl, 2.5 mM CaCl2. Controls were similarly treated without addition of thrombin. Ten micrograms of each GST-peptide fusion was removed for PAGE analysis, and 10 μg of fusions were added in duplicate to the fixed Caco-2 cells before 5-fold serial dilutions (1% BPT diluent). The fusions were allowed to bind for 1h at room temperature. Following 6 washes with 1% BPT, binding was assayed by ELISA.

fixed Caco-2 cells [4] = experiment: Competition ELISA: synthetic peptides versus GST-peptide fusions on fixed Caco-2 cells; details: peptide from 100 μg/ml serially diluted; GST fusion 10 μg
Description: Caco-2 cells were fixed, treated with phenylhydrazin and blocked as described above. Synthetic peptides (100 μg/ml) were applied in duplicate to Caco-2 cells and serially diluted down the 96-well plate. The corresponding GST-peptide fusion protein (10 μg) was added to each well and the plates were incubated for 2h at room temperature with agitation. Binding of the GST-peptide fusion proteins to the cells was assayed using the ELISA technique described above.

[5] = test system: P100 membrane fraction of Caco-2 cells; experiment: Dansylated peptide ELISA: relative binding of PAX2 and HAX42 peptides to P100 fractions (ratio to ZElan021); details: HAX42 peptides, ratio to ZElan021 = 1.00
Summary of the method: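 Plates coated overnight at 4 °C with Caco-2 P100 membrane fraction (normally 100 μg/ml, pH 9.6) and blocked with 2% Marvel/PBS were incubated with dansylated peptides. Binding was detected with anti-mouse λ-HRP and TMB, read at 650 nm, and expressed relative to ZElan021.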

[6] = test system: P100 membrane fraction of Caco-2 cells; experiment: Binding of dansylated peptides to P100 fractions (peptide/particle correlation); details: compared with scrambled PAX2 control
Description: Caco-2 cell membrane (P100) and cytosolic (S100) fractions were prepared using a modification of the method described in Kinsella, B. T., O'Mahony, D. J. and G. A. FitzGerald, 1994, J. Biol. Chem. 269(47): 29914–29919. Confluent Caco-2 cell monolayers (grown in 75 cm^2 flasks for up to 1 week at 37° C. and 5% CO2) were washed twice in Dulbecco's PBS (DPBS) and the cells were harvested by centrifugation at 1000 rpm after treatment with 10 mM EDTA-DPBS. The cells were washed 3 times in DPBS and the final cell pellet was resuspended in 3 volumes of ice cold HED buffer (20 mM HEPES (pH 7.67), 1 mM EGTA, 0.5 mM dithiothreitol, 1 mM phenylmethylsulphonyl fluoride (PMSF)). The cells were allowed to swell for 5 min on ice prior to homogenization for 30 sec. The homogenates were centrifuged at 40,000 rpm for 45 min at 4° C. The supernatant (S100) was removed and the pellet (P100) was resuspended in HEDG buffer (20 mM HEPES (pH 7.67), 1 mM EGTA, 0.5 mM dithiothreitol, 100 mM NaCl, 10% glycerol, 1 mM PMSF). Protein concentrations were determined using the Bradford assay (Bradford, M. M., 1976, Anal. Biochem. 72: 248–254).
Binding of peptide and/or peptide-coated PLGA particles to membrane (P100) and cytosolic (S100) fractions was assessed by detection of the dansyl moiety incorporated in the peptide. Costar ninety six well ELISA plates were coated with S100 and P100 fractions (100 μg/ml in 0.05 M NaHCO3) overnight at 4° C. The plates were blocked with 0.5% bovine serum albumin in DPBS for 1 h at room temperature and washed 3 times in 1% BSA-DPBS. Peptide-coated particles or peptides were dispersed in the same buffer and added to the plates at concentrations in the range 0.0325–0.5 mg/well. […] The plates were incubated for 1 h at room temperature. The wells were washed 3 times in 1% BSA-DPBS and 100 μl of goat anti-mouse IgGλ:HRP antibody (Southern Biotechnology 1060-05; 1:10,000) was added per well. The plates were incubated for 1 h at room temperature. After washing 3 times in 1% BSA-DPBS 100 μl of TMB substrate (3,3′,5′,5-tetramethylbenzidine; Microwell Peroxidase Substrate System (Kirkegaard and Perry Laboratories 50-76-00)) was added and the optical density was measured at 650 nm at various time intervals.
Binding of dansylated peptides to P100 fractions was assessed to determine if peptide binding was predictive of peptide-coated particle binding.

[7] = test system: rat gastro-intestinal tract (closed loop); experiment: Transport of preselected phage libraries in rat closed loop, detected by oligonucleotide hybridization/autoradiography; details: hPEPT1 pool; in words
[8] = Animal Study 3: intraduodenal open loop leuprolide acetate particles, plasma leuprolide; assay type: in vivo, Wistar rats; details: intraduodenal 600 μg vs 12.5 μg subcutaneous
Description: An intraduodenal open loop model study was carried out on Wistar rats (300–350 g). Group 1 was administered leuprolide acetate (12.5 μg) subcutaneously. Group 2 was administered intraduodenally uncoated leuprolide acetate particles (600 μg, 1.5 ml).

BSA = BSA (Bos taurus, UniProt P02769); experiment: Receptor ELISA of phage on BSA (background control protein); assay type: binding; details: Table 4; phage panned on hPEPT1
Sequence of BSA (P02769 25-607): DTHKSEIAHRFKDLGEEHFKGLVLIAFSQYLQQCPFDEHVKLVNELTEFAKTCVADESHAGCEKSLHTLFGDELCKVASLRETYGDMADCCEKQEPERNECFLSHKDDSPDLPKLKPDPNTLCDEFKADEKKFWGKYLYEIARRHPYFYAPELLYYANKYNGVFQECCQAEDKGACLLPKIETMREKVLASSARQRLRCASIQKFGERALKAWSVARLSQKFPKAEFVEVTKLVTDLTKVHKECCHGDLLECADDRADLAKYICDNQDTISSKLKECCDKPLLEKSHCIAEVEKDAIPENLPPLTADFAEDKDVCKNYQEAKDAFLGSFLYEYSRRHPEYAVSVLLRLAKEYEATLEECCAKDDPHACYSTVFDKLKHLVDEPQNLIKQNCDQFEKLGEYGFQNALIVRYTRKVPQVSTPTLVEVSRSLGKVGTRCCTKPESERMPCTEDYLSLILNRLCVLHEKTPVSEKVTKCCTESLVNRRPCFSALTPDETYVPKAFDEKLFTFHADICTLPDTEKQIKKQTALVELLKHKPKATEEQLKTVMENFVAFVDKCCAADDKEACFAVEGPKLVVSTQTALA

## GST-HAX42: GST-fusion protein from HAX42 (SDHALGTNLRSDNAKEPGDYNCCGNGNSTGRKVFNRRRPSAIPT; cysteine pairing not given here; also: GST fusion)
[1]
  Value (binding to P100 as ratio of GST-HAX42 binding): 1.00
Fixed Caco-2 cells [2]
  Binding to fixed Caco-2 or C2BBe1 cells relative to GST control: weak to moderate binding
Fixed C2BBe1 cells
  Crossreactivity of GST fusion to ZElan018 (PAX2) and ZElan021 (HAX42): exhibited crossreactivity

## GST-PAX2-106: GST fusion of truncated peptide derived from PAX2, SEQ ID NO: 188 (TNAKHSSHNRRLRTRSRPN; also: GST fusion)
[1]
  Value (binding to P100 as ratio of GST-HAX42 binding): 2.71
Fixed Caco-2 cells [3]
  Effect of cleavage with thrombin on detection of binding to fixed Caco-2 cells: significantly reduced

## H-K(Dansyl)SDHALGTNLRSDNAKEPGDYNCCGNGNSTGRKVFNRRRPSAIPT-NH2 (cysteines drawn unpaired) [ZElan021]
Fixed Caco-2 cells [4]
  Inhibition of GST-HAX42 binding to fixed Caco-2 cells: not inhibited
[5]; 20 μg/ml
  Binding value at 20 μg/ml: 1.00
[5]; first column
  Binding value at 25 μg/ml: 1.00
  Binding value at 50 μg/ml: 1.00
[5]; second column
  Binding value at 25 μg/ml: 1.00
  Binding value at 50 μg/ml: 1.00
[5]; third column
  Binding value at 25 μg/ml: 1.00
[6]; initial assay
  Binding of dansylated peptide to P100 fraction: strong binding
[6]; repeat assay
  Binding of dansylated peptide to P100 fraction: significant binding

## SARDSGPAEDGSRAVRLNGVENANTRKSSRSNPRGRRHP (not fully specified) [Peptide P31]
[7]
  Binding to / presence in the intestine samples: preferential binding
  Presence in the portal circulation: found
  Presence in the systemic circulation: found in the systemic circulation
[8]
  Plasma levels of leuprolide relative to subcutaneous injection: enhanced plasma levels of leuprolide
BSA
  BSA: 0.075 OD
